Laboratory results: US9944654B2, “Nargenicin compounds and uses thereof as antibacterial agents” (priority 2014, dated 2018)
Converted amounts (≈) assume the structure as drawn. Read-outs that look alike come from different tables or passages of the source.

What was measured:
[1] = target: T1, E. coli DnaE (DNA polymerase III α-subunit from Escherichia coli) (Escherichia coli, UniProt P10443); experiment: In vitro DnaE single enzyme assay (E. coli); format: biochemical
T1 construct: EcDnaE (E. coli DnaE residues 1-1160); 6xHis (N); made in house; host or cells: E. coli BL21(DE3)
T1 sequence (P10443 whole entry, the tested form may be a part): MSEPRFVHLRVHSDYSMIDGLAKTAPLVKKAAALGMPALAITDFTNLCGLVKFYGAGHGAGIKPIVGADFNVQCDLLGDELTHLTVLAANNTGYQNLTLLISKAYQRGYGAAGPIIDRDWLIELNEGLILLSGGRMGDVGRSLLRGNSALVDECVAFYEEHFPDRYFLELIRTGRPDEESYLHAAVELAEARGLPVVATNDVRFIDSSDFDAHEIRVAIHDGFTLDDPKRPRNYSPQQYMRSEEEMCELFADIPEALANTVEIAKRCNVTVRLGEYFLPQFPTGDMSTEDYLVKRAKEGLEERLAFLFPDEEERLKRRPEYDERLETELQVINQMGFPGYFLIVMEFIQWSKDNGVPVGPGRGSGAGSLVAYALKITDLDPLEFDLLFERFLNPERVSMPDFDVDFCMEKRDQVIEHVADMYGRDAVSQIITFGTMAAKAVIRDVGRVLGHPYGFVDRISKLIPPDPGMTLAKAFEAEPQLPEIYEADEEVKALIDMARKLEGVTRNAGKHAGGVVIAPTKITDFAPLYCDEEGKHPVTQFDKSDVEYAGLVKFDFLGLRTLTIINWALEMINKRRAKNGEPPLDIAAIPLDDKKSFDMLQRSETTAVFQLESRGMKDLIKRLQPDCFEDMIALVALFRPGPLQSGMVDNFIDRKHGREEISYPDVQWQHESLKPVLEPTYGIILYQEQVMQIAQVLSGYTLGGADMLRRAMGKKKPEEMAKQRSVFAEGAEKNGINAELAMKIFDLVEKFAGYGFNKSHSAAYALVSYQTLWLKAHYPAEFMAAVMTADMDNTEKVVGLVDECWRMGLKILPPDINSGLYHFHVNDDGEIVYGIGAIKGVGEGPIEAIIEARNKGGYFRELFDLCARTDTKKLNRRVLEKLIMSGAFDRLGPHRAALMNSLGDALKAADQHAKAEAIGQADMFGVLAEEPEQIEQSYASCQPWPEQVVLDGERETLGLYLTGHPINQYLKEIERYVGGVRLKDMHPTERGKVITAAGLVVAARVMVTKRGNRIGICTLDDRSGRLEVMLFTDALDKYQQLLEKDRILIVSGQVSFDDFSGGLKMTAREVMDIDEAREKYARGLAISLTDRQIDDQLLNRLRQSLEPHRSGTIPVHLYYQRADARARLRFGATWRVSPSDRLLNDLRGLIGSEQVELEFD
Method in brief: (§1)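 His-tagged E. coli DnaE (residues 1-1160, 0.8 μg/ml) or S. aureus DnaE (residues 1-1065, 0.05 μg/ml) incubated 30 min at 30° C. with activated calf thymus DNA, 0.025 mM dATP/dGTP/dCTP and 0.011 mM 3H-dTTP in Tris pH 7.5/Mg acetate. TCA-precipitated labelled DNA counted.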

[2] = target: T2, S. aureus DnaE (DNA polymerase III α-subunit homolog from Staphylococcus aureus) (Staphylococcus aureus, UniProt Q5HF71); experiment: biochemical; format: biochemical
T2 construct: SaDnaE (S. aureus DnaE residues 1-1065); 6xHis (N); made in house; host or cells: E. coli BL21-AI
T2 sequence (Q5HF71 1-1065): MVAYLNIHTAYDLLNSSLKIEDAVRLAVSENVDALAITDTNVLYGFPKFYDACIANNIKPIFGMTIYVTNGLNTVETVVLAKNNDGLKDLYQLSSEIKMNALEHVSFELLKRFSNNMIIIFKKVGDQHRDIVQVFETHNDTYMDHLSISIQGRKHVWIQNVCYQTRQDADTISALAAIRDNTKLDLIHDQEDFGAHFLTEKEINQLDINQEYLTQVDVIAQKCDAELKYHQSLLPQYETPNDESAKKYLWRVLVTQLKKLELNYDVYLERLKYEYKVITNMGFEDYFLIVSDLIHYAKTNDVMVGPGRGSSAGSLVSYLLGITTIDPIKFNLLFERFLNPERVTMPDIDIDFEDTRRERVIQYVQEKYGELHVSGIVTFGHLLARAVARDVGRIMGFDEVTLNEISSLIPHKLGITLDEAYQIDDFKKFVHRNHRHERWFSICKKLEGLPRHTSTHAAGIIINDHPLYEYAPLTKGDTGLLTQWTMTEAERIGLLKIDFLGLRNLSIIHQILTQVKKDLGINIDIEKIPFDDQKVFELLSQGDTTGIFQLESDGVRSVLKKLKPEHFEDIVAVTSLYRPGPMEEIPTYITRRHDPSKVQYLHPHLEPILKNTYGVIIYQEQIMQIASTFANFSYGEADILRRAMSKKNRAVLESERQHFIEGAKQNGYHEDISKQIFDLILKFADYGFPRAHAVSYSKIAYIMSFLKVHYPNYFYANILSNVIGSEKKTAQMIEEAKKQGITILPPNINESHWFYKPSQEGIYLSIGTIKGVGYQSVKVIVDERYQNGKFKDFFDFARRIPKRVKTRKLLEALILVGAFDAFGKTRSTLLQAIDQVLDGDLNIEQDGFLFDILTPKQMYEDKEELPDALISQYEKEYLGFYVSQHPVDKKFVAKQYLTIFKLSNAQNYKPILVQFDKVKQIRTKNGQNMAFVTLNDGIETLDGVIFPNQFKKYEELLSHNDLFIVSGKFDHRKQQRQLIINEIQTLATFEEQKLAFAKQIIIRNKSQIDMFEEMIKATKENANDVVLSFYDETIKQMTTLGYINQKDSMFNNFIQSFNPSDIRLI
Method in brief: as §1

[3] = test system: Escherichia coli MB5747 (LS 883, tolC); experiment: microbe, parasite or virus in culture; format: cell-based; details: * = some reduction of growth versus control at […]; for MIC: Escherichia coli, read-out: E. coli LS883 tolC (MIC), MHII broth
[4] = test system: Pseudomonas aeruginosa MB5890 (CB1101, efflux-deleted); experiment: microbe, parasite or virus in culture; format: cell-based; details: * = some reduction of growth versus control at […]; for MIC: Pseudomonas aeruginosa, read-out: P. aeruginosa MB5890 efflux-del (MIC), MHII broth
[5] = test system: Staphylococcus aureus MB6266 (MRSA COL); experiment: Nargenicin antibacterial assay (MIC), S. aureus; format: cell-based; details: * = some reduction of growth versus control at […]; for MIC: Staphylococcus aureus, MRSA, read-out: S. aureus COL (MIC), MHII broth + 50% human serum
[6] = test system: Streptococcus pneumoniae MB6357 (CL 2883); experiment: Nargenicin antibacterial assay (MIC), S. pneumoniae; format: cell-based; details: * = some reduction of growth versus control at […]; for MIC: Streptococcus pneumoniae, read-out: S. pneumoniae MB2883 (MIC), Isosensitest broth
[7] = read-out: S. aureus DnaE IC50 (converted)
[8] = read-out: E. coli DnaE IC50 (converted)

Row | Compound | IC50 ([1]; E. coli DnaE IC50) | IC50 [2, 7] | MIC [3] | MIC [4] | MIC [5] | MIC [6] | IC50 [1, 8] | IC50 ([2]; S. aureus DnaE IC50) | E. coli DnaE IC50 [1] | S. aureus DnaE IC50 [2] | E. coli LS883 tolC (MIC) ([3]; MHII broth) | P. aeruginosa MB5890 efflux-del (MIC) ([4]; MHII broth) | S. aureus COL (MIC) ([5]; MHII broth + 50% human serum) | S. pneumoniae MB2883 (MIC) ([6]; Isosensitest broth)
1 | CO[C@H]1C[C@H]2C=C[C@H]3[C@H]4O[C@]2(/C(C)=C/[C@@H](C)[C@@H]([C@@H](C)O)OC1=O)[C@@H]3[C@H](O)C(C)[C@@H]4NCc1cccs1.O=C(O)C(F)(F)F (stereo partly drawn) [Example 153] | > 158 µM | 47.5 µM | > 128 µg/mL | > 128 µg/mL | > 128 µg/mL | > 128 µg/mL |  |  |  |  |  |  |  | 
2 | CO[C@H]1C[C@H]2C=C[C@H]3[C@H]4O[C@]2(/C(C)=C/[C@@H](C)[C@@H]([C@@H](C)OC(=O)c2ccccc2)OC1=O)[C@@H]3[C@H](O)[C@@H](C)[C@H]4OC(=O)c1ccc[nH]1 [Example 67] | 12.9 µM | 0.0113 µM | > 128 µg/mL | > 128 µg/mL | > 128 µg/mL | > 128 µg/mL |  |  |  |  |  |  |  | 
3 | CO[C@H]1C[C@H]2C=C[C@H]3[C@H]4O[C@]2(/C(C)=C/[C@@H](C)[C@@H]([C@@H](C)OC(N)=O)OC1=O)[C@@H]3[C@H](O)[C@@H](C)[C@H]4OC(=O)c1ccc[nH]1 [Example 7] |  |  | 2 µg/mL (≈ 3.58 µM) | 32 µg/mL (≈ 57.3 µM) | 4 µg/mL | > 128 µg/mL | 53.7 µM | < 0.0107 µM |  |  |  |  |  | 
4 | CCCCCCCCNC(=O)O[C@H](C)[C@H]1OC(=O)[C@@H](OC)C[C@H]2C=C[C@H]3[C@H]4O[C@]2(/C(C)=C/[C@H]1C)[C@@H]3[C@H](O)[C@@H](C)[C@H]4OC(=O)c1ccc[nH]1 [Example 14] |  |  | > 128 µg/mL | > 128 µg/mL | > 128 µg/mL | 32 µg/mL (≈ 47.7 µM) | 16.4 µM | 0.119 µM |  |  |  |  |  | 
5 | CO[C@H]1C[C@H]2C(=O)C[C@H]3[C@H]4O[C@]2(/C(C)=C/[C@@H](C)[C@@H]([C@@H](C)O)OC1=O)[C@@H]3[C@H](O)[C@@H](C)[C@H]4OC(=O)c1ccc[nH]1 [Example 182] |  |  | 8 µg/mL (≈ 15 µM) | 32 µg/mL (≈ 60.2 µM) | 32 µg/mL | > 128 µg/mL | > 188 µM | 0.0376 µM |  |  |  |  |  | 
6 | CO[C@H]1C[C@H]2C=C[C@H]3[C@H]4O[C@]2(/C(C)=C/[C@@H](C)[C@@H]([C@@H](C)O)OC1=O)[C@@H]3[C@H](O)[C@@H](C)[C@H]4OC(C)=O [Example 186] |  |  | 4 µg/mL (≈ 8.61 µM) | 16 µg/mL (≈ 34.4 µM) | 8 µg/mL | > 128 µg/mL | 64.6 µM | ~0.00969 µM |  |  |  |  |  | 
7 | CO[C@H]1C[C@H]2C=C[C@H]3[C@H]4O[C@]2(/C(C)=C/[C@H](C)[C@@H](c2ccccc2)OC1=O)[C@@H]3[C@H](O)[C@@H](C)[C@H]4OC(=O)c1ccc[nH]1 [Example 53] |  |  | > 128 µg/mL | > 128 µg/mL | > 128 µg/mL | > 128 µg/mL | 73 µM | 0.183 µM |  |  |  |  |  | 
8 | CO[C@H]1C[C@H]2[C@@H](O)C[C@H]3[C@H]4O[C@]2(/C(C)=C/[C@@H](C)[C@@H]([C@@H](C)O)OC1=O)[C@@H]3[C@H](O)[C@@H](C)[C@H]4OC(=O)c1ccc[nH]1 [Example 193] |  |  | 64 µg/mL (≈ 120 µM) | > 128 µg/mL | > 128 µg/mL | > 128 µg/mL | > 187 µM | 1.87 µM |  |  |  |  |  | 
9 | C/C1=C\[C@@H](C)[C@@H](C(C)O)OC(=O)C(O)CC2C=C[C@H]3[C@H]4O[C@@]12[C@@H]3[C@H](O)[C@@H](C)[C@H]4OC(=O)c1ccc[nH]1 (stereo partly drawn) [Example 174] |  |  | 8 µg/mL (≈ 15.9 µM) | > 128 µg/mL | 8 µg/mL | > 128 µg/mL | 21.9 µM | 0.0199 µM |  |  |  |  |  | 
10 | C=C1C[C@@H]2C[C@H](OC)C(=O)O[C@H]([C@@H](C)O)[C@H](C)/C=C(\C)[C@]23O[C@H]2[C@H](OC(=O)c4ccc[nH]4)[C@H](C)[C@@H](O)[C@@H]3[C@@H]12 [Example 200] |  |  | 2 µg/mL (≈ 3.78 µM) | 64 µg/mL (≈ 121 µM) | 8 µg/mL | 128 µg/mL (≈ 242 µM) | > 189 µM | 0.0113 µM |  |  |  |  |  | 
11 | CO[C@H]1C[C@H]2C=C[C@H]3[C@H]4O[C@]2(/C(C)=C/[C@@H](C)[C@@H]([C@@H](C)OC(=O)NCCc2ccccc2)OC1=O)[C@@H]3[C@H](O)[C@@H](C)[C@H]4OC(=O)c1ccc[nH]1 [Example 8] |  |  | > 128 µg/mL | > 128 µg/mL | > 128 µg/mL | > 128 µg/mL | 45.3 µM | 0.0679 µM |  |  |  |  |  | 
12 | CO[C@H]1C[C@H]2C=C[C@H]3[C@H]4O[C@]2(/C(C)=C/[C@@H](C)[C@@H]([C@@H](C)OC(=O)C[N+]25CC[N+](CC(N)=O)(CC2)CC5)OC1=O)[C@@H]3[C@H](O)[C@@H](C)[C@H]4OC(=O)c1ccc[nH]1.O=S(=O)([O-])C(F)(F)F.[Br-] [Example 74] |  |  | 0.5 µg/mL | 32 µg/mL | 0.5 µg/mL | > 128 µg/mL | 20.9 µM | < 0.00628 µM |  |  |  |  |  | 
13 | CO[C@H]1C[C@H]2C=C[C@H]3[C@H]4O[C@]2(/C(C)=C/[C@@H](C)[C@@H]([C@@H](C)OC(=O)NCc2ccccc2)OC1=O)[C@@H]3[C@H](O)[C@@H](C)[C@H]4OC(=O)c1ccc[nH]1 [Example 10] |  |  | > 128 µg/mL | > 128 µg/mL | 8 µg/mL | > 128 µg/mL | > 154 µM | 0.0308 µM |  |  |  |  |  | 
14 | CO[C@H]1C[C@H]2C=C[C@H]3[C@H]4O[C@]2(/C(C)=C/[C@@H](C)[C@@H](C(C)=O)OC1=O)[C@@H]3C(=O)[C@@H](C)[C@H]4OC(=O)c1ccc[nH]1 [Example 171] |  |  | > 8 µg/mL | > 128 µg/mL | > 8 µg/mL | > 128 µg/mL | 176 µM | 6.84 µM |  |  |  |  |  | 
15 | C=CC[C@@H]1OC(=O)[C@@H](OC)C[C@H]2C=C[C@H]3[C@H]4O[C@]2(/C(C)=C/[C@H]1C)[C@@H]3[C@H](O)[C@@H](C)[C@H]4OC(=O)c1ccc[nH]1 [Example 54] |  |  | 64 µg/mL (≈ 125 µM) | > 128 µg/mL | 64 µg/mL | > 128 µg/mL | 60.6 µM | 0.088 µM |  |  |  |  |  | 
16 | CO[C@H]1C[C@H]2C=CC3C4[C@H](O)[C@@H](C)[C@@H](OC(=O)c5ccc[nH]5)[C@@H]3O[C@]42/C(C)=C/[C@@H](C)[C@@H]([C@@H](C)OC(=O)C(=O)OCc2ccccc2)OC1=O [Example 211] |  |  | < 0.125 µg/mL | 16 µg/mL (≈ 23.6 µM) | 0.5 µg/mL | > 128 µg/mL | 2.95 µM | < 0.00885 µM |  |  |  |  |  | 
17 | CO[C@H]1C[C@H]2C[C@@H](O)[C@H]3[C@H]4O[C@]2(/C(C)=C/[C@@H](C)[C@@H]([C@@H](C)O)OC1=O)[C@@H]3[C@H](O)[C@@H](C)[C@H]4OC(=O)c1ccc[nH]1 [Example 194] |  |  | 128 µg/mL (≈ 240 µM) | > 128 µg/mL | > 128 µg/mL | > 128 µg/mL | > 187 µM | 9.37 µM |  |  |  |  |  | 
18 | COCCNC(=O)C(=O)O[C@H](C)[C@H]1OC(=O)[C@@H](OC)C[C@H]2C=CC3C4[C@H](O)[C@@H](C)[C@@H](OC(=O)c5ccc[nH]5)[C@@H]3O[C@]42/C(C)=C/[C@H]1C [Example 119] |  |  |  |  |  |  |  |  | 11 µg/mL | 0.0012 µg/mL | 0.25 µg/mL | 8 µg/mL | ≤0.125 µg/mL | >128* μg/mL
